Reference: patent US11000568B2, “Means and methods for treating copper-related diseases” (HELMHOLTZ ZENTRUM MÜNCHEN—DEUTSCHES FORSCHUNGSZENTRUM FÜR …, priority 2015, dated 2021)
“Also recorded” adds a separate entry of the source. Like-named read-outs stand apart in the source and are kept apart here. Numbered stars: 1 amine (or outer) side, 2 acyl side, 3 side chain; on linkers, the order of the positions; unused ones are H or OH. Bridge positions count the residues as written; N and C are the ends. Square brackets hold non-standard residues; d marks the D form. Peptide text beside a SMILES is read from it. * marks the point of attachment. X2 = O=C1OC(C2CCCN2[*:1])=NC1C(=S)NC(CO)C(=O)[*:2]; X1 = CC(C)CC(=O)C1=NC(C(=S)NCC(=O)*)C(=O)O1

What was measured:
HepG2 cells [1] = experiment: Cellular MB uptake by competitive ELISA; assay type: in vitro ADME; conditions: 2 and 24 hours
Experimental: Cellular MB uptake was determined from cell lysates incubated for 2 or 24 h with MB at different concentrations by a competitive ELISA using a monoclonal anti-MB antibody.
Competitive ELISA. All 86 TCS were diluted 1:10 with buffer (PBS, 5% FCS, 0.01% sodium acide). 50 μl of each TCS were pre-incubated with 50 μl MB solution (1000 ng/ml in buffer) or buffer overnight. The experiments were run in duplicates. 50 μl of the pre-incubated sample were added to ELISA plates coated with MB as used for screening. After 10 min, the plates were washed, bound antibodies against MB were detected with HRP conjugated mAbs against the rat IgG isotypes and HRP was visualized with TMB. MAbs that recognized free MB (no signal when pre-incubated with MB, positive signal in the buffer control) were further analyzed in a serial dilution of MB (1000 ng/ml to 2 ng/ml). The four mAbs that best recognized free MB were established (10610, 12D9, 18H7, 21G5, all of rat IgG2a subclass). To increase the sensitivity of the test system, the TCS of the established hybridomas were titrated on ELISA plates coated with MB. The titer of […] was far better (1:1260) than of 12D9 (1:320), 18H7 (1:10) and 21G5 (1:320).
For the test system 10610 was used at a dilution of 1:500 and the pre-incubation time reduced to one hour.

metallothionein = conditions: in vitro and in vivo experiments; cited from earlier work
HepG2 cells [2] = experiment: Mitochondrial membrane potential staining of HepG2 cells; assay type: cell-based; conditions: 500 μM MB
Experimental: For immunofluorescence staining, 2×10^4 cells were incubated with either medium alone, 500 μM MB or 250 μM CCCP in black 96-well plates with clear glass bottom. Staining was done by 1.6 μM Hoechst 33342 (ex 360-400 nm, em 410-480 nm), 300 nM MitoTracker® red (ex 620-640 nm, em 650-760 nm), and 1 μM nonyl acridine orange (NAO, ex 460-490 nm, em 500-550 nm) for 40 minutes at 37° C. After a washing step, fluorescence was analyzed.

LPP−/− rats = experiment: Repetitive MB treatment cycles in LPP−/− rats; assay type: in vivo, rat
From the text: Due to the efficiency of the short-term MB treatment, we did a first test aiming at replacing daily chelation therapy by a regimen consisting of repetitive treatment cycles interrupted by longer observation cycles (FIG. 14). Five LPP−/− rats as well as five age- and sex-matched LPP+/− controls were included. One pair of rats was sacrificed at experimental days 1, 8, 29, 36 and 85, respectively. […] The four remaining LPP−/− rats were subjected to the first treatment cycle consisting of three daily MB injections (i.p.) for five days. […] Upon the second treatment cycle copper loads decreased again, but now down to 25% of the starting values, resulting in an unprecedented low copper load in LPP−/− mitochondria (day 36, pair 4). […] At experimental day 85, liver and mitochondrial copper loads had risen back to values before beginning of the treatment (day 1), associated with an impaired mitochondrial function (65% ATP production capacity) in comparison to its LPP+/− control (pair 5).

[3] = Stability analysis of MB by absorbance of oxazolone rings; assay type: physicochemical; conditions: time and/or temperature
Experimental: (C) Stability analysis of metal free MB and Zn-loaded MB followed by absorbance measurements of their two metastable oxazolone rings (OxaA/ZnA at 394 nm and OxaB/ZnB at 340 nm)^57 at 37° C.
HepG2 cells were kept in MEM with 2% FCS. […] Therefore, Zn-MB, generated by preparing a 20 mM MB solution and adding an equimolar concentration of Zn solution under pH control, was used in cell culture experiments.

LPP−/− livers = experiment: Two hour LPP−/− liver perfusion; set-up: species or system rat
Experimental: LPP−/− livers (animal age 79-83 days) were perfused in a single pass manner with Krebs-Ringer bicarbonate solution containing 5 mM glucose (Beuers et al., J Biol Chem 278, 17810-17818 (2003)). The medium was gassed with 95% O2/5% CO2 and kept at 37° C. Rat livers were perfused via the portal vein (Beuers et al., log. cit.), the right lateral liver lobe was ligated and its copper content served as pre-perfusion control (Beuers et al., Hepatology 33, 1206-1216 (2001)). After cannulation of the bile duct a 20 min sample of bile was collected before the copper chelators were continuously added to the perfusion medium. Bile and outflow perfusate were collected in 10 min intervals as described elsewhere (Beuers et al., log. cit.). D-PA*HCl (20 mg/108 μmol), TETA*2HCl (20 mg/91 μmol), TTM*2NH4 (10 mg/38 μmol) and MB (40 mg/35 μmol) were each dissolved in 50 ml 0.9% NaCl, and continuously added to the perfusion medium via a perfusion pump (Perfusor, Braun, Melsungen) within 2 hours. The molar ratios of the chelators applied was MB 1:D-PA 3.1:TETA 2.6:TTM 1.1. LDH in the outflow perfusate was measured every ten minutes as described (Beuers et al., log. cit.). Control perfusions were done with Krebs-Ringer bicarbonate solution only.

[4] = MB in serum after i.p. injection; assay type: in vivo, rat
Experimental: LPP rats were treated with MB either by daily i.p. injections for 3 or 5 consecutive days, or twice daily i.p. injections for 8 consecutive days at a dose of 150 mg/kg bw or 4 days via the drinking water with D-PA at a dose of 100 mg/kg bw/d or TETA at 480 mg/kg bw/d, respectively (Togashi et al., Hepatology 15, 82-87 (1992)). Based on a mean copper content of 250 μg/g w.w. in Atp7b−/− rat livers at the age of treatment start (Zischka et al., log. cit.), a LPP−/− rat liver of 8 g w.w. contains around 31.5 μmol copper. Single MB doses were chosen equimolar to this copper amount. […] Assuming 40 ml water intake per day for a rat weighing 250 g this translates to a dose of 480 mg/kg bw/d. With respect to the mean liver copper content in LPP−/− rats aged 85 days, the molar ratios of the chelators applied was MB 1:D-PA 4.3:TETA 17.4, respectively. […]
Competitive ELISA. […] After 10 min, the plates were washed, bound antibodies against MB were detected with HRP conjugated mAbs against the rat IgG isotypes and HRP was visualized with TMB. MAbs that recognized free MB (no signal when pre-incubated with MB, positive signal in the buffer control) were further analyzed in a serial dilution of MB (1000 ng/ml to 2 ng/ml). […]

[5] = day 36, after second treatment cycle

CSCCC(NC(=O)C1CSSCC(NC(=O)C(CO)NC(=O)CNC(=S)C2N=C(C(=O)CC(C)C)OC2=O)C(=O)NC(Cc2ccc(O)cc2)C(=O)N2CCCC2C2=NC(C(=O)O2)C(=S)NC(CO)C(=O)N1)C(=O)O (stereo not drawn) [MB] (X1-SCY[X2]CM-OH; disulfide 2-5; configuration not given here)
intracellular MB uptake (HepG2 cells [1]): taken up in a dose dependent manner | removal of Cu from metallothionein (metallothionein): has been shown to remove Cu from metallothionein | mitochondrial membrane potential (HepG2 cells [2]): reduced the mitochondrial membrane potential only partially; also recorded: only intermediate phases of mitochondrial membrane potential loss | copper loads relative to starting values (LPP−/− rats; [5]): 25% | decoppering efficiency (LPP−/− rats; [5]): 75% | ATP production capacity vs LPP+/− control (LPP−/− rats; experimental day 85): 65% | reduction in copper load (LPP−/− rats; experimental day eight, after first cycle (three daily MB i.p. for five days)): 40% | health status during observation period (LPP−/− rats; further seven weeks after second cycle): stayed healthy | mitochondrial and liver copper load (LPP−/− rats; recurrent treatment cycles): marked reduction in mitochondrial and liver copper load | time/age to disease onset vs untreated LPP−/− rats (LPP−/− rats; recurrent treatment cycles): doubling of the age; also recorded: doubling of time before disease onset | decay [3]: susceptible to time- and/or temperature-dependent decay | copper released into bile (LPP−/− livers; MB 0.7 μM, TTM 0.8 μM, D-PA 2.2 μM, TETA 1.8 μM): tenfold higher amounts of copper; also recorded: tenfold higher copper amounts into bile | liver copper content after perfusion (LPP−/− livers; vs pre-perfusion/buffer control): significantly reduced the copper content; also recorded: significantly reduces the liver copper content | time MB detectable in the serum [4]: 30 min | time MB detectable in the serum ([4]; n=2): half an hour
